Where a name gives a salt, the structure may show the parent alone.
How the values were obtained:
[1] = system: Human immunodeficiency virus 1; test: Antiviral activity against HIV-1 in human CD4+Th cells expressing DC-SIGN assessed as inhibition of viral infection; assay type: functional, organism-based; conditions: Human immunodeficiency virus 1, CD4+ve Th
[2] = system: Ebolavirus; test: Antiviral activity against envelope pseudotyped Ebola virus in human Jurkat cells expressing DC-SIGN assessed as inhibition of viral infection; assay type: functional, organism-based
[3] = target: T1, C-type lectin domain family 4 member M (Homo sapiens) (UniProt Q9H2X3); test: Inhibition of DC-SIGN (unknown origin)- mediated fluorescent probe binding at 0.1 mM relative to control
T1 sequence (whole entry): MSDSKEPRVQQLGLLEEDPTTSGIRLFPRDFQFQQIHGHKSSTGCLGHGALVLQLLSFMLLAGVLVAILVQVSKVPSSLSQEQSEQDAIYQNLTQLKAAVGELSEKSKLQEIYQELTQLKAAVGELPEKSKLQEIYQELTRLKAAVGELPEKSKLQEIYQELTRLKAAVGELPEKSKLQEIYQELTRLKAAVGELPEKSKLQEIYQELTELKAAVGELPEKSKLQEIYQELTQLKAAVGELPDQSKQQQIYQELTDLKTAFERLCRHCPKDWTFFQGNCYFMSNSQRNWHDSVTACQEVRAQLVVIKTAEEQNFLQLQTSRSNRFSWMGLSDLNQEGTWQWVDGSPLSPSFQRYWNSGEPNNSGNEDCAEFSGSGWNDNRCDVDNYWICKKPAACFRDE

[4] = target: T1, C-type lectin domain family 4 member M (Homo sapiens); test: Inhibition of DC-SIGN (unknown origin)- mediated fluorescent probe binding at 1 mM relative to control
[5] = target: T2, C-type lectin domain family 4 member K (Mus musculus, UniProt Q8VBX4); test: Inhibition of mannan binding to mouse Langerin extracellular domain by ELLA assay
T2 sequence (Q8VBX4 whole entry): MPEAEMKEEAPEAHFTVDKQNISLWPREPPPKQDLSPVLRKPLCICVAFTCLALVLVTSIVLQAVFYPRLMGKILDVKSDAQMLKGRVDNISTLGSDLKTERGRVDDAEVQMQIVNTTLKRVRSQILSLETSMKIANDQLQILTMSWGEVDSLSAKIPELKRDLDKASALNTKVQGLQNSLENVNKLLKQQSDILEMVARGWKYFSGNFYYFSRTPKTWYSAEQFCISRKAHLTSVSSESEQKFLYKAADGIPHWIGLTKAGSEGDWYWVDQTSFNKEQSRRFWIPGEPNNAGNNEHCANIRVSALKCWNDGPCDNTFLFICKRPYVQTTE

[6] = target: T2, C-type lectin domain family 4 member K; test: Inhibition of mannan binding to mouse Langerin extracellular domain assessed as apparent dissociation constant by ELLA assay; conditions: read-out: Kd(app)
[7] = target: C-type lectin domain family 4 member K (Homo sapiens, UniProt Q9UJ71); test: Binding affinity to Langerin (unknown origin) by [19F] R2-filtered NMR assay
C-type lectin domain family 4 member K (Homo sapiens, UniProt Q9UJ71), sequence (Q9UJ71 whole entry, the tested form may be a part): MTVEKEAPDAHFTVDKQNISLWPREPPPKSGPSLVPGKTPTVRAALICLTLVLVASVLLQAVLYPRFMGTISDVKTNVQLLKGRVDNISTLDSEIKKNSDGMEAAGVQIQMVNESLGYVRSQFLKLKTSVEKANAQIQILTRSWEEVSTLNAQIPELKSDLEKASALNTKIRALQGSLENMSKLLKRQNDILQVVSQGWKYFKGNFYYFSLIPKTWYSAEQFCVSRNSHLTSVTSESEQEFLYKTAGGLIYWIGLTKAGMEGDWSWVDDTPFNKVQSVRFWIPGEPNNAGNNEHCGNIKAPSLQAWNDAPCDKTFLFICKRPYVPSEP

[8] = Inhibition of DC-SIGN (unknown origin)/ SARS CoV-2 spike glycoprotein interaction

Compound `[N-]=[N+]=NCCO[C@H]1C[C@H](C(=O)NCc2ccc(CO)cc2)[C@@H](C(=O)NCc2ccc(CO)cc2)C[C@@H]1O[C@H]1O[C@H](CO)[C@@H](O)[C@H](O)[C@@H]1O` has an IC50 [1] of 0.024 µM and an IC50 ([2]; Orthoebolavirus, Jurkat) of less than 0.06 µM.

Work on `NS(=O)(=O)c1ccc(CCCC2Nc3ccc(C(=O)N4CCN(c5ccncc5)CC4)cc3NC2=O)cc1` (stereo unspecified) yielded an inhibition [3] of 79% and an inhibition [4] of 92%.

In the case of `O=C(NCCc1cn2c(n1)SCC2)c1cnc2sccn2c1=O`, the IC50 [5] is reported as 50 µM and the Kd [6] is reported as 450 µM.

Work on `N[C@H]1C(O)O[C@H](CO)[C@@H](O)[C@@H]1O` (stereo partly specified) [GLUCOSAMINE SULFATE] yielded a Ki [7] of 1400 µM.

In the case of `NC(=O)c1ccc(CCCC2Nc3ccc(C(=O)N4CCN(c5ncccn5)CC4)cc3NC2=O)cc1` (stereo unspecified), the inhibition [3] is reported as 53% and the inhibition [4] is reported as 77%.

For `COC(=O)[C@H]1C[C@H](OCCN)[C@@H](O[C@H]2O[C@H](CO)[C@@H](O)[C@H](O)[C@@H]2O)C[C@@H]1C(=O)OC`, the IC50 [1] was 0.024 µM and the IC50 ([2]; jurkat) was less than 0.06 µM.

Work on `C#CCO[C@H]1O[C@H](CO)[C@@H](O)[C@H](O)[C@@H]1NC(C)=O` yielded a Ki [7] of 48000 µM.

In the case of `O=C(NCc1ccc(CO)cc1)[C@H]1C[C@H](OCCn2cc(COCCC(CCOCCn3cc(-c4cc(OCCOCCO)c(C#Cc5cc(OCCOCCO)c(C#Cc6cc(OCCOCCO)c(-c7cn(CCOCCC(CCOCc8cn(CCO[C@H]9C[C@H](C(=O)NCc%10ccc(CO)cc%10)[C@@H](C(=O)NCc%10ccc(CO)cc%10)C[C@@H]9O[C@H]9O[C@H](CO)[C@@H](O)[C@H](O)[C@@H]9O)nn8)(CCOCc8cn(CCO[C@H]9C[C@H](C(=O)NCc%10ccc(CO)cc%10)[C@@H](C(=O)NCc%10ccc(CO)cc%10)C[C@@H]9O[C@H]9O[C@H](CO)[C@@H](O)[C@H](O)[C@@H]9O)nn8)CCOCc8cn(CCO[C@H]9C[C@H](C(=O)NCc%10ccc(CO)cc%10)[C@@H](C(=O)NCc%10ccc(CO)cc%10)C[C@@H]9O[C@H]9O[C@H](CO)[C@@H](O)[C@H](O)[C@@H]9O)nn8)nn7)cc6OCCOCCO)cc5OCCOCCO)cc4OCCOCCO)nn3)(CCOCc3cn(CCO[C@H]4C[C@H](C(=O)NCc5ccc(CO)cc5)[C@@H](C(=O)NCc5ccc(CO)cc5)C[C@@H]4O[C@H]4O[C@H](CO)[C@@H](O)[C@H](O)[C@@H]4O)nn3)CCOCc3cn(CCO[C@H]4C[C@H](C(=O)NCc5ccc(CO)cc5)[C@@H](C(=O)NCc5ccc(CO)cc5)C[C@@H]4O[C@H]4O[C@H](CO)[C@@H](O)[C@H](O)[C@@H]4O)nn3)nn2)[C@@H](O[C@H]2O[C@H](CO)[C@@H](O)[C@H](O)[C@@H]2O)C[C@@H]1C(=O)NCc1ccc(CO)cc1`, the IC50 [8] is reported as 9.6 µM.

Compound `C#CCO[C@H]1O[C@H](CO)[C@@H](O)[C@H](O)[C@@H]1NC(=O)Cc1nnn[nH]1` has a Ki [7] of 7600 µM.

`C#CCO[C@H]1O[C@H](CO)[C@@H](O)[C@H](O)[C@@H]1NC(=O)CS(=O)(=O)O` gave a Ki [7] of 1300 µM.

With `CC(=O)NCCO[C@@H]1O[C@H](CO)[C@@H](O)[C@H](O)[C@H]1NS(=O)(=O)c1ccc(C)cc1` the Ki [7] was 320 µM.
